According to article PMC5376056, “Developing Hypothetical Inhibition Mechanism of Novel Urea Transporter B Inhibitor” (Scientific Reports, 2014):

Columns and labels:
UT-B [1] = biological target: T1, UT-B (Mus musculus, UniProt Q8VHL0); test: erythrocyte osmotic lysis assay, mouse erythrocytes; assay type: cell-based; conditions: mean ± s.e.m., n = 3
T1 construct: using erythrocytes, which originally express UT-B; endogenous in cells; host or cells: wild-type mouse erythrocytes (vein blood)
T1 sequence (Q8VHL0 1-384): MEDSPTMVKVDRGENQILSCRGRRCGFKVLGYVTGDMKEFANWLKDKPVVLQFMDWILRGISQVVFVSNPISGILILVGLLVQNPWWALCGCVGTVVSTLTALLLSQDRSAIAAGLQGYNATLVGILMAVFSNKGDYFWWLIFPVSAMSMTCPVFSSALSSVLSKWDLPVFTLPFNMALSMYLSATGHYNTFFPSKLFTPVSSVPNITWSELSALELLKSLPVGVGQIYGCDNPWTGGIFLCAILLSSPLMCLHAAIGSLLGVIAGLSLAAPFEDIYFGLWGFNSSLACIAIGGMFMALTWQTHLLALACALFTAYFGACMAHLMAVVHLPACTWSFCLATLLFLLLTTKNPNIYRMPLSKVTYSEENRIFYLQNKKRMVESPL
Description: (§1) Vein blood was collected from humans, SD rats, wild-type mice or UT-B-null mice as described previously.
(§2) High-throughput screening assay was performed for identification of UT-B inhibitors using erythrocytes, which originally express UT-B as described previously. Erythrocytes were diluted to a hematocrit value of 2% in hyperosmolar PBS containing 1.25 M acetamide and 5 mM glucose. Erythrocyte suspensions were preserved at room temperature for 2 h by periodic pipette mixture. Then, 99 μl erythrocyte suspension from a reservoir was added to each well of a 96-well round-bottom microplate, to which test compounds were added (1 μl, 10 μM final compound concentration, 1% final DMSO concentration). After 6 min of incubation, 20 μl of the erythrocyte suspension was added rapidly to each well of a 96-well black-walled plate containing 180 μl isomolar buffer (PBS containing 1% DMSO) in each well. Erythrocyte lysis was quantified from a single time point measure of absorbance at 710 nm wavelength with a plate reader (BioTek)[27].
(§3) The percentage of erythrocyte lysis in each test well was calculated using control values from the same plate as: % lysis = 100%. (Aneg-Atest)/(Aneg-Apos), where Atest is the absorbance value from a test well. Nonspecific UT-B inhibitor phloretin (Sigma-Aldrich, 700 μM final concentration) was added as an additional positive control.

UT-B [2] = biological target: T2, UT-B (Homo sapiens, UniProt Q13336); test: erythrocyte osmotic lysis assay, human erythrocytes; assay type: cell-based; conditions: mean ± s.e.m., n = 3
T2 construct: using erythrocytes, which originally express UT-B; endogenous in cells; host or cells: human erythrocytes (vein blood)
T2 sequence (Q13336 1-389): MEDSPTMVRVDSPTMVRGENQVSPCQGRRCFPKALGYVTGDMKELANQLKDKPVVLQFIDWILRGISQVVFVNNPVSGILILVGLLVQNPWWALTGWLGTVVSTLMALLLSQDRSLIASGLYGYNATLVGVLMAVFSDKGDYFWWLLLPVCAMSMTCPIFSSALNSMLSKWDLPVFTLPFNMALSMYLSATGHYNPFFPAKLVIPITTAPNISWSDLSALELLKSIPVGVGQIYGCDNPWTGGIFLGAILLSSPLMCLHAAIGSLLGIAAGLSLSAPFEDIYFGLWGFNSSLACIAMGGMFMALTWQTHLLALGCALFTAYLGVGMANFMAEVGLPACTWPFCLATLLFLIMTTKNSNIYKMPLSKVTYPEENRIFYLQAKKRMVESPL
Description: as §1, §2, §3

UT-B [3] = biological target: T3, UT-B (Rattus norvegicus, UniProt P97689); test: erythrocyte osmotic lysis assay, rat erythrocytes; assay type: cell-based; conditions: mean ± s.e.m., n = 3
T3 construct: using erythrocytes, which originally express UT-B; endogenous in cells; host or cells: SD rat erythrocytes (vein blood)
T3 sequence (P97689 1-384): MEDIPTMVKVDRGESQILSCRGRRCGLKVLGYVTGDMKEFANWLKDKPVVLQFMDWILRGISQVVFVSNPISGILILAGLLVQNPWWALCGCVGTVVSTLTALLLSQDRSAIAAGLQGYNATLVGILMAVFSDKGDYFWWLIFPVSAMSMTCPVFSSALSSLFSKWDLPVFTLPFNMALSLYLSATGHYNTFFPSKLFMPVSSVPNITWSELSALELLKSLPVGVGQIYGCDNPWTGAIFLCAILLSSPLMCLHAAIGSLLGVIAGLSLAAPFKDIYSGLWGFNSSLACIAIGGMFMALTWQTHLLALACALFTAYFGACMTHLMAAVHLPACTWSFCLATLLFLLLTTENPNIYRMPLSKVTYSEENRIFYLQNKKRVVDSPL
Description: as §1, §2, §3

UT-B [4] = biological target: UT-B; parameters: method as in Ren et al., under review; conditions: pIC50 = -log(IC50) + 6; analogues of PU21; ref Ren et al., under review; cited from earlier work
[5] = parameters: method as in PMID 23486518; conditions: cited from earlier work
UT-B [6] = test system: UT-B; parameters: method as in PMID 23486518; conditions: rabbit; cited from earlier work
UT-B [7] = biological target: T1, UT-B; parameters: method as in PMID 23486518; conditions: cited from earlier work
UT-B [8] = biological target: T2, UT-B; parameters: method as in PMID 23486518; conditions: cited from earlier work
UT-B [9] = biological target: T3, UT-B; parameters: method as in PMID 23486518; conditions: cited from earlier work

SMILES | IC50 (UT-B [1]) [µM] | IC50 (UT-B [2]) [µM] | IC50 (UT-B [3]) [µM] | pIC50 (UT-B [4]) | diuresis activity in vivo [5] | UT-B inhibition activity in vitro (UT-B [6]) | UT-B inhibition activity in vitro (UT-B [7]) | UT-B inhibition activity in vitro (UT-B [8]) | UT-B inhibition activity in vitro (UT-B [9])
CCN(Cc1ccccc1)[C@H](c1cc2c(C)cc(C)cc2[nH]c1=O)c1nnnn1C[C@@H]1CCCO1 [PU168, 3-((R)-(benzyl(ethyl)amino)(1-(((S)-tetrahydrofuran-2-yl)methyl)-1H-tetrazol-5-yl)methyl)-5,7-dimethylquinolin-2(1H)-one] | > 10 | 0.2 ± 0.03 | > 10 |  |  |  |  |  | 
CC(=O)c1sc2nc3ccc(C)cc3cc2c1N [PU-14] |  |  |  | 5.454 | pharmacological diuresis activity | potential inhibition activity | potential inhibition activity | potential inhibition activity | potential inhibition activity

Second part, led by results:

IC50 (UT-B [1]) [µM] | IC50 (UT-B [2]) [µM] | IC50 (UT-B [3]) [µM] | SMILES | pIC50 (UT-B [4]) | diuresis activity in vivo [5] | UT-B inhibition activity in vitro (UT-B [6]) | UT-B inhibition activity in vitro (UT-B [7]) | UT-B inhibition activity in vitro (UT-B [8]) | UT-B inhibition activity in vitro (UT-B [9])
> 10 | 0.28 ± 0.01 | > 10 | Cn1c(=O)c2c(nc(SCC(=O)Nc3cccc(O)c3)n2Cc2ccccc2)n(C)c1=O [PU474, 2-((7-benzyl-1,3-dimethyl-2,6-dioxo-2,3,6,7-tetrahydro-1H-purin-8-yl)thio)-N-(3-hydroxyphenyl)acetamide] |  |  |  |  |  | 
4.81 ± 0.4 | 3.78 ± 0.48 | 2.62 ± 0.12 | COc1ccc2nc3sc(C(C)=O)c(N)c3cc2c1 [PU21, 1-(3-amino-6-methoxythieno[2,3-b]quinolin-2-yl)ethanone] |  |  |  |  |  | 
4.13 ± 0.33 | 5.63 ± 0.82 | 3.18 ± 0.24 | Cc1nc2ccc(NC(=O)c3ccco3)cc2c(=O)n1Cc1ccc(Cl)cc1 [PU468, N-(3-(4-chlorobenzyl)-2-methyl-4-oxo-3,4-dihydroquinazolin-6-yl)furan-2-carboxamide] |  |  |  |  |  | 
